Columns and labels:
human CB1 receptor [1] = biological target: T1, human CB1 receptor (Homo sapiens, UniProt P21554); assay: [35S] GTPγS binding on membranes of CHO cells expressing the human CB1 receptor (agonism); format: biochemical; set-up: expressed in transfected cells; membrane preparation; conditions: GTPγS EC50, human CB1, CHO cell membranes
How it was run: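 Membranes from human CB1-expressing CHO cells (5 μg/well) incubated with test compound and [35S]GTPγS in 50 mM Tris pH 7.4, 100 mM NaCl, 3 mM MgCl2, 0.2 mM EGTA, 0.04% BSA for 45 min at 37 °C. Bound label collected by filtration, scintillation counted; EC50 from curve fits.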

human CB1 receptor [2] = biological target: T1, human CB1 receptor; assay: Human CB1 receptor binding, [3H] CP-55,940 displacement on HEK cell membranes; set-up: expressed in transfected cells; host or cells: HEK cells, doxycycline-induced; membrane preparation; conditions: CB1 Ki
How it was run: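 Membranes from doxycycline-induced HEK cells expressing human CB1 incubated 60 min at room temperature with [3H] CP-55,940 (final […]) in 50 mM Tris pH 7.4, 100 mM NaCl, 3 mM MgCl2, 0.2 mM EGTA, 0.04% BSA. Nonspecific binding defined with 50 μM WIN-55,212-2; filtration and scintillation counting gave EC50 and Ki.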

T1 sequence (P21554 whole entry): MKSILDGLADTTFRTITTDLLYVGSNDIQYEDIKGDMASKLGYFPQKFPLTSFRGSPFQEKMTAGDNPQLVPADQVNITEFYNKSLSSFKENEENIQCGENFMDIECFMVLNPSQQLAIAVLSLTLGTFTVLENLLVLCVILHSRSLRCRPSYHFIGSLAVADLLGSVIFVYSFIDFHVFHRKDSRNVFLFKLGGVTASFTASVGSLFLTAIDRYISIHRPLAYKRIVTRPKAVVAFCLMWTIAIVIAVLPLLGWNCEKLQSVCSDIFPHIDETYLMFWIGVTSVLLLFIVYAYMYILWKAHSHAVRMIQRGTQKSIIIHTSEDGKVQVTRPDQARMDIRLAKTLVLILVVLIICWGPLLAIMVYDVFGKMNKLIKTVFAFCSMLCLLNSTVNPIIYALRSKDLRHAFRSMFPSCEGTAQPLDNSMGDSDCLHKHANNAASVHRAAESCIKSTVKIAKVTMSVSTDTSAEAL

| Structure (SMILES) | EC50 (human CB1 receptor [1]) [nM] | Ki (human CB1 receptor [2]) [nM] |
| --- | --- | --- |
| Cc1cc(CNC(=O)[C@@H](NC(=O)c2nn(Cc3ccc(F)cc3)c3ccccc23)C(C)(C)C)no1 [Example 425] | 3.36 | 0.92 |
| CC(C)(C)[C@H](NC(=O)c1nn(Cc2ccc(C#N)cc2)c2c(F)cccc12)C(=O)NCCCO [Example 109] | 110 | 8.14 |
| CC(C)(C)[C@H](NC(=O)c1nn(Cc2ccc(F)cc2)c2ccccc12)C(=O)N[C@H](CO)C(N)=O [Example 246] | 69 | 6.58 |

Reference: patent US20110028447A1, “INDAZOLE DERIVATIVES” (Pfizer Inc., priority 2008, published 2011)
